{
  "source": "patent US20020123480A1",
  "about": "“Methods and compositions utilizing 2'-5' oligoadenylates in the treatment of disorders of cell proliferation” (priority 2000, published 2002)",
  "key": {"[1]": {"tested_on": "primary human cervical keratinocytes (PHK)", "assay": "Growth of control primary human cervical keratinocytes, Coulter Counter cell count", "type": "cell-based", "conditions": "for IC50: Homo sapiens, Keratinocyte"}, "[2]": {"tested_on": "HeLa (HPV-18-positive)", "assay": "Growth of HPV-positive HeLa cells, Coulter Counter cell count", "type": "cell-based, human", "conditions": "for IC50: Homo sapiens"}, "[3]": {"tested_on": "EiL8 (HPV-16-positive)", "assay": "Growth of HPV-positive EiL8 cells, Coulter Counter cell count", "type": "cell-based, human", "conditions": "for IC50: Homo sapiens, read-out: IC50 (concentration required to reduce cell growth by 50%)", "description": "(§1) The cells used in the first study included CK-1 (HPV-33-positive), EiL8 (HPV-16-positive), SiHa (HPV-16-positive) and HeLa (HPV-18-positive) and control primary human cervical keratinocytes (PHK). The cells were cultured in growth medium at 37° C., in 5% CO2. For these experiments, the cells were seeded in 96-well microtiter plates and after 24 hours of growth, serial dilutions of the test compounds were added. The cells were not fed after addition of the compounds. After three, five, seven and ten days, the cells were harvested by trypsinization and counted with a Coulter Counter. Duplicate wells were analyzed for each dilution and the results averaged. The number of cells recovered at each dilution was compared to the number of cells in untreated control wells and the concentration of test compound required to reduce cell growth by 50 percent (IC50) was determined."}, "[4]": {"tested_on": "CK-1 (HPV-33-positive)", "assay": "cells", "type": "cell-based", "conditions": "for IC50: Homo sapiens, read-out: IC50 (concentration required to reduce cell growth by 50%)"}, "[5]": {"tested_on": "SiHa (HPV-16-positive)", "assay": "Growth of HPV-positive SiHa cells, Coulter Counter cell count", "type": "cell-based, human", "conditions": "for IC50: Homo sapiens"}, "[6]": {"tested_on": "human foreskin fibroblast (HFF) cells", "assay": "Growth of human foreskin fibroblasts, neutral red uptake and counting of cells", "type": "cell-based", "description": "as §1\n(§2) The human foreskin fibroblast (HFF) cells were cultured in growth medium as described above, but assayed by neutral red uptake and counting of cells. The human embryonic lung fibroblast (HEL) cells were cultured in growth medium and assayed as described above by counting with a Coulter Counter. Daudi cells, an Epstein-Barr Virus (EBV)-positive Burkitt's lymphoma tumor cell line, were cultured in growth medium as described above and assayed by the neutral red uptake assay. […]"}, "[7]": {"tested_on": "Daudi cells, an Epstein-Barr Virus (EBV)-positive Burkitt's lymphoma tumor cell line", "assay": "Growth of Daudi cells, neutral red uptake assay", "type": "cell-based, human", "description": "as §1, §2"}, "[8]": {"tested_on": "human papillomavirus (HPV)-positive cell lines", "assay": "Growth of human papillomavirus (HPV)-positive cell lines in presence of test compounds", "type": "cell-based", "description": "See […] et at., Oncol Res. 10, 523-31 (1998) and J. A. Johnson et al., Antimicrob. Agents Chemother. 43, 1198-205 (1999). […] For these experiments, the cells were seeded in 96-well microtiter plates and after 24 hours of growth, serial dilutions of the test compounds were added. The cells were not fed after addition of the compounds. After three, five, seven and ten days, the cells were harvested by trypsinization and counted with a Coulter Counter. Duplicate wells were analyzed for each dilution and the results averaged."}, "[9]": {"tested_on": "human papillomavirus (HPV)-positive cell lines", "conditions": "literature (Andrei 1998; Johnson 1999); cited from earlier work"}, "[10]": {"conditions": "72 h, Day 3, read-out: IC50 (concentration required to reduce cell growth by 50%)"}, "[11]": {"conditions": "120 h, Day 5, read-out: IC50 (concentration required to reduce cell growth by 50%)"}, "[12]": {"conditions": "168 h, Day 7, read-out: IC50 (concentration required to reduce cell growth by 50%)"}, "[13]": {"conditions": "240 h, Day 10, read-out: IC50 (concentration required to reduce cell growth by 50%)"}},
  "note": "Where two headings read alike, the source gives them in different places.",
  "data": [
    {"molecule": "2′,3′-cyclophosphateadenylyl(2′,5′)adenylyl-(2′,5′)adenosine [Cmpd. I]", "values": [
      {"measurement": "IC50 (concentration required to reduce cell growth by 50%)", "setting": "[1]; Day 3", "result": 110, "unit": "µg/mL"},
      {"measurement": "IC50 (concentration required to reduce cell growth by 50%)", "setting": "[1]; Day 5", "result": 168, "unit": "µg/mL"},
      {"measurement": "IC50 (concentration required to reduce cell growth by 50%)", "setting": "[1]; Day 7", "result": 262, "unit": "µg/mL"},
      {"measurement": "IC50 (concentration required to reduce cell growth by 50%)", "setting": "[1]; Day 10", "result": 280, "unit": "µg/mL"},
      {"measurement": "IC50 (concentration required to reduce cell growth by 50%)", "setting": "[2]; Day 3", "result": 66, "unit": "µg/mL"},
      {"measurement": "IC50 (concentration required to reduce cell growth by 50%)", "setting": "[2]; Day 5", "result": 62, "unit": "µg/mL"},
      {"measurement": "IC50 (concentration required to reduce cell growth by 50%)", "setting": "[2]; Day 7", "result": 90, "unit": "µg/mL"},
      {"measurement": "IC50 (concentration required to reduce cell growth by 50%)", "setting": "[2]; Day 10", "result": 160, "unit": "µg/mL"},
      {"measurement": "IC50 (concentration required to reduce cell growth by 50%)", "setting": "[3]; EiL8, Day 3", "result": 63, "unit": "µg/mL"},
      {"measurement": "IC50 (concentration required to reduce cell growth by 50%)", "setting": "[3]; EiL8, Day 5", "result": 68, "unit": "µg/mL"},
      {"measurement": "IC50 (concentration required to reduce cell growth by 50%)", "setting": "[3]; EiL8, Day 7", "result": 103, "unit": "µg/mL"},
      {"measurement": "IC50 (concentration required to reduce cell growth by 50%)", "setting": "[3]; EiL8, Day 10", "result": 180, "unit": "µg/mL"},
      {"measurement": "IC50 (concentration required to reduce cell growth by 50%)", "setting": "[4]; CK-1, Day 3", "result": 100, "unit": "µg/mL"},
      {"measurement": "IC50 (concentration required to reduce cell growth by 50%)", "setting": "[4]; CK-1, Day 5", "result": 46, "unit": "µg/mL"},
      {"measurement": "IC50 (concentration required to reduce cell growth by 50%)", "setting": "[4]; CK-1, Day 7", "result": 104, "unit": "µg/mL"},
      {"measurement": "IC50 (concentration required to reduce cell growth by 50%)", "setting": "[4]; CK-1, Day 10", "result": 303, "unit": "µg/mL"},
      {"measurement": "IC50 (concentration required to reduce cell growth by 50%)", "setting": "[5]; Day 3", "result": 150, "unit": "µg/mL"},
      {"measurement": "IC50 (concentration required to reduce cell growth by 50%)", "setting": "[5]; Day 5", "result": 108, "unit": "µg/mL"},
      {"measurement": "IC50 (concentration required to reduce cell growth by 50%)", "setting": "[5]; Day 7", "result": 141, "unit": "µg/mL"},
      {"measurement": "IC50 (concentration required to reduce cell growth by 50%)", "setting": "[5]; Day 10", "result": 193, "unit": "µg/mL"},
      {"measurement": "inhibition of growth (in words)", "setting": "[6]", "result": "inhibit the growth"},
      {"measurement": "inhibition of growth (in words)", "setting": "[7]", "result": "inhibit the growth"},
      {"measurement": "growth inhibition / anti-proliferative activity (in words)", "setting": "[8]", "result": "anti-proliferative activity"}
    ]},
    {"molecule": "Nc1ccn(C[C@@H](CO)OCP(=O)(O)O)c(=O)n1", "note": "[HPMPC, 3-hydroxy-2-phosphonylmethoxy-propyl cytosine, reference compound]", "values": [
      {"measurement": "IC50", "setting": "[1]; [10]", "result": 9.9, "unit": "µg/mL"},
      {"measurement": "IC50", "setting": "[1]; [11]", "result": 7, "unit": "µg/mL"},
      {"measurement": "IC50", "setting": "[1]; [12]", "result": 6.4, "unit": "µg/mL"},
      {"measurement": "IC50", "setting": "[1]; [13]", "result": 3.7, "unit": "µg/mL"},
      {"measurement": "IC50", "setting": "[2]; [10]", "result": 37, "unit": "µg/mL"},
      {"measurement": "IC50", "setting": "[2]; [11]", "result": 5.6, "unit": "µg/mL"},
      {"measurement": "IC50", "setting": "[2]; [12]", "result": 3.9, "unit": "µg/mL"},
      {"measurement": "IC50", "setting": "[2]; [13]", "result": 4.7, "unit": "µg/mL"},
      {"measurement": "IC50", "setting": "[3]; 72 h, EiL8, Day 3", "result": 39, "unit": "µg/mL"},
      {"measurement": "IC50", "setting": "[3]; 120 h, EiL8, Day 5", "result": 7.9, "unit": "µg/mL"},
      {"measurement": "IC50", "setting": "[3]; 168 h, EiL8, Day 7", "result": 4.2, "unit": "µg/mL"},
      {"measurement": "IC50", "setting": "[3]; 240 h, EiL8, Day 10", "result": 3.5, "unit": "µg/mL"},
      {"measurement": "IC50", "setting": "[4]; CK1, 72 h, CK-1, Day 3", "result": 32, "unit": "µg/mL"},
      {"measurement": "IC50", "setting": "[4]; CK1, 120 h, CK-1, Day 5", "result": 1.1, "unit": "µg/mL"},
      {"measurement": "IC50", "setting": "[4]; CK1, 168 h, CK-1, Day 7", "result": 0.5, "unit": "µg/mL"},
      {"measurement": "IC50", "setting": "[4]; CK1, 240 h, CK-1, Day 10", "result": 1.2, "unit": "µg/mL"},
      {"measurement": "IC50", "setting": "[5]; [10]", "result": 179, "unit": "µg/mL"},
      {"measurement": "IC50", "setting": "[5]; [11]", "result": 8.6, "unit": "µg/mL"},
      {"measurement": "IC50", "setting": "[5]; [12]", "result": 4.7, "unit": "µg/mL"},
      {"measurement": "IC50", "setting": "[5]; [13]", "result": 4, "unit": "µg/mL"},
      {"measurement": "inhibition of proliferation of HPV-transformed cells (in words)", "setting": "[9]", "result": "inhibit the proliferation"}
    ]},
    {"molecule": "Nc1nc2c(ncn2COCCO)c(=O)[nH]1", "note": "[acyclovir, reference compound]", "values": [
      {"measurement": "growth inhibition / anti-proliferative activity (in words)", "setting": "[8]", "result": "With the exception of acyclovir, growth inhibition was observed"}
    ]}
  ]
}
